Data as given in ChEMBL document CHEMBL3045018, “Comparative QSTR study of saturated alcohols based on topological, constitutional, geometrical, and getaway descriptors” (Med Chem Res, 2009).

The compounds below were run on Tetrahymena pyriformis (assay: Toxicity in Tetrahymena pyriformis). Conditions: in vivo.
For `CC(O)CCl` (stereo not given), the pGI50 was 1.2446. With `OCCCl` [2-CHLOROETHANOL] the pGI50 was 1.5343. With `CCCC(C)O` (stereo not given) [2-PENTANOL] the pGI50 was 1.1596. `OCCCCl` [3-Chloropropanol] was tested, and the pGI50 was 1.1622. `CC(C)CCO` [3-METHYLBUTANOL] showed a pGI50 of 1.0359. For `CCC(O)CC` [3-PENTANOL], the pGI50 was 1.2437. In the case of `CCO` [ALCOHOL], the pGI50 is reported as 1.9912. `CCC(C)(C)O` [AMYLENE HYDRATE] was tested, and the pGI50 was 1.1729. Work on `CCC(C)O` (stereo not given) [BUTANOL] yielded a pGI50 of 1.542. Work on `CCCCO` [BUTYL ALCOHOL] yielded a pGI50 of 1.4306. `CC(C)CO` [ISOBUTANOL] gave a pGI50 of 1.3724. In the case of `CC(C)O` [ISOPROPYL ALCOHOL], the pGI50 is reported as 1.8819. `CO` [METHYL ALCOHOL] gave a pGI50 of 2.6656. `CCCO` [PROPANOL] gave a pGI50 of 1.7464. `CC(C)(C)O` [TERT-BUTANOL] showed a pGI50 of 1.7911.
